The source of these data is patent US10696672B2 (Pliant Therapeutics, Inc., priority 2016, dated 2020).

For this assay, the target named is recombinant human integrin αvβ6 (Homo sapiens (Human), UniProt P06756+P18564). In words: Solid phase integrin αvβ6 binding assay. The conditions noted are these: plate-coated integrin; recombinant TGFβ1 LAP 0.67 ug/ml as ligand; 2 hours at 25° C.; read-out: αvβ6 Inhibition IC50 (nM) - range. Here is the method: Example B1—Solid Phase Integrin αvβ6 Binding Assay
recombinant human integrin αvβ6, sequence (P06756 31-992): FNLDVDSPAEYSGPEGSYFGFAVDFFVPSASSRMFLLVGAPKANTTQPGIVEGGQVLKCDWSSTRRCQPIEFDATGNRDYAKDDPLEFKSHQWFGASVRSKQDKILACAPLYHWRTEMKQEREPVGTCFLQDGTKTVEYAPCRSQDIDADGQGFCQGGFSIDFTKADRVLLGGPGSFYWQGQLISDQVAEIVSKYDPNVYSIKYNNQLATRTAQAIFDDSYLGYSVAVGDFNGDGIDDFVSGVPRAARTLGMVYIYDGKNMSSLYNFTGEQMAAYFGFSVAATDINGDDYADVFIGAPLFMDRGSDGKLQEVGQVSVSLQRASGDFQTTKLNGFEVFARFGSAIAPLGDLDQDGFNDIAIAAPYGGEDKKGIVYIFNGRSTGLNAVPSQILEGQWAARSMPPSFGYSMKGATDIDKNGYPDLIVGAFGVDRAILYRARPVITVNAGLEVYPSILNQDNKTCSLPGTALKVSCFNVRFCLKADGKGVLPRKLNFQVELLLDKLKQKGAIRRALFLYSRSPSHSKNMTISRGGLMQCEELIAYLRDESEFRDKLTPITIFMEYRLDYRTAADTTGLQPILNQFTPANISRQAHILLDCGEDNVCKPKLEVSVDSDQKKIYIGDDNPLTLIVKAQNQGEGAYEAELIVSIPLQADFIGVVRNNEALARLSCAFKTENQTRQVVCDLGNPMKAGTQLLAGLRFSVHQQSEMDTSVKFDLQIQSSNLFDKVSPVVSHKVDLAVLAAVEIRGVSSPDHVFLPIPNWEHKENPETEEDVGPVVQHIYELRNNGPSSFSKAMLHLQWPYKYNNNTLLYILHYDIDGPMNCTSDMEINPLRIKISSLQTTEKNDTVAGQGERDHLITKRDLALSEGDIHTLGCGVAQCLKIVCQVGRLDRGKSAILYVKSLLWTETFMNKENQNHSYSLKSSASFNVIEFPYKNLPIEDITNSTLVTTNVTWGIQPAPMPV
recombinant human integrin αvβ6, sequence (P18564 22-707): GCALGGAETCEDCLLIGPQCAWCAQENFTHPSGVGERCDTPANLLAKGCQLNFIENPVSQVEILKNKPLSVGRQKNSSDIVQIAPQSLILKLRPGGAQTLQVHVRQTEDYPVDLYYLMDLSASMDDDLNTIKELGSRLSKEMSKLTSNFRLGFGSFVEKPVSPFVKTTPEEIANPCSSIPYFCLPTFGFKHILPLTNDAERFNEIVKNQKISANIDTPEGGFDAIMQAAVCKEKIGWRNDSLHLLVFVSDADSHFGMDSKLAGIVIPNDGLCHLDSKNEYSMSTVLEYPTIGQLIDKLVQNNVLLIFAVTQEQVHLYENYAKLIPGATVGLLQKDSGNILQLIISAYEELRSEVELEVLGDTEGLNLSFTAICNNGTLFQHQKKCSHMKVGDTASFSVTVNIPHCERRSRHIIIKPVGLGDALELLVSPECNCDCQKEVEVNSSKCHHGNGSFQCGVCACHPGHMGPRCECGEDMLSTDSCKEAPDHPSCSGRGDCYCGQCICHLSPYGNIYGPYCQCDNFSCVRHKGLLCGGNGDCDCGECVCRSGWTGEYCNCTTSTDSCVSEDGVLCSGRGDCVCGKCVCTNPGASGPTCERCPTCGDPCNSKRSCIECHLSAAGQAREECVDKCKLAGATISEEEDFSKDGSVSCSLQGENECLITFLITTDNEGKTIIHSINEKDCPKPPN
Microplates were coated with recombinant human integrin αvβ6 (2 ug/ml) in PBS (100 ul/well 25° C., overnight). The coating solution was removed, washed with wash buffer (0.05% Tween 20; 0.5 mM MnCl2; in 1×TBS). Plate was blocked with 200 ul/well of Block Buffer (1% BSA; 5% sucrose; 0.5 mM MnCl2; in 1×TBS) at 37° C. for 2 h. Dilutions of testing compounds and recombinant TGFβ1 LAP (0.67 ug/ml) in binding buffer (0.05% BSA; 2.5% sucrose; 0.5 mM MnCl2; in 1×TBS) were added. The plate was incubated for 2 hours at 25° C., washed, and incubated for 1 hour with Biotin-Anti-hLAP. Bound antibody was detected by peroxidase-conjugated streptavidin. The IC50 values for testing compounds were calculated by a four-parameter logistic regression.
The compounds tested were compound samples prepared according to procedures described in the Synthetic Examples section, with the stereochemical purity as indicated in the Examples indicated.
Consider `O=C(N[C@@H](CCN1CC[C@@H](CCc2ccc3c(n2)NCCC3)C1)C(=O)O)c1cccc(-c2ncco2)c1` [Compound 59], for which the IC50 is below 50 nM. With `O=C(N[C@@H](CCN1CC(CCc2ccc3c(n2)NCCC3)C1)C(=O)O)C1CCCN1Cc1ccccc1` (stereo partly shown) [Compound 135] the figure was above 1000 nM; with `O=C(N[C@@H](CCN1CC[C@@H](CCc2ccc3c(n2)NCCC3)C1)C(=O)O)c1c(Cl)cccc1Cl` [Compound 6a, (S)-2-(2,6-dichlorobenzamido)-4-((R)-3-(2-(5,6,7,8-tetrahydro-1,8-naphthyridin-2-yl)ethyl)pyrrolidin-1-yl)butanoic acid], below 50 nM. Then `O=C(N[C@@H](CCN1CCC[C@](F)(CCc2ccc3c(n2)NCCC3)C1)C(=O)O)C1CCC(F)(F)CC1` [Compound 109], with 50 to 250 nM. `Cn1cc(-c2cccc(C(=O)N[C@@H](CCN3CC[C@@H](CCc4ccc5c(n4)NCCC5)C3)C(=O)O)c2)cn1` [Compound 58]: the IC50 was below 50 nM. Regarding `O=C(N[C@H](CCN1CC[C@@H](CCc2ccc3c(n2)NCCC3)C1)C(=O)O)c1c(Cl)cccc1Cl` [Compound 6c, (R)-2-(2,6-dichlorobenzamido)-4-((R)-3-(2-(5,6,7,8-tetrahydro-1,8-naphthyridin-2-yl)ethyl)pyrrolidin-1-yl)butanoic acid], the IC50 was in the range of 250 to 1000 nM. As for `O=C(N[C@@H](CCN1CC(CCc2ccc3c(n2)NCCC3)C(F)(F)C1)C(=O)O)c1ccccc1` (stereo partly shown) [Compound 39], the half-maximal inhibitory concentration (IC50) was in the range of 50 to 250 nM. With `O=C(N[C@@H](CCN1CC[C@@H](CCc2ccc3c(n2)NCCC3)C1)C(=O)O)c1ccncn1` [Compound 70] the figure was below 50 nM; with `O=C(N[C@@H](CCN1CC[C@@H](CCc2ccc3c(n2)NCCC3)C1)C(=O)O)c1cnccn1` [Compound 50], below 50 nM. Then `O=C(N[C@@H](CCN1CC(OCCc2ccc3c(n2)NCCC3)C1)C(=O)O)[C@H]1CCN(c2ccccn2)C1` [Compound 132], with 50 to 250 nM; and `N#Cc1cc(Cl)c(C(=O)NC(CCN2CC[C@@H](CCc3ccc4c(n3)NCCC4)C2)C(=O)O)c(Cl)c1` (stereo partly shown) [7a and 7c], with below 50 nM; and `O=C(N[C@@H](CCN1CC[C@@H](CCc2ccc3c(n2)NCCC3)C1)C(=O)O)c1ccccc1N1CCOCC1` [Compound 14a, (S)-2-(2-morpholinobenzamido)-4-((R)-3-(2-(5,6,7,8-tetrahydro-1,8-naphthyridin-2-yl)ethyl)pyrrolidin-1-yl)butanoic acid], with 50 to 250 nM. Turning to `O=C(N[C@@H](CCN1CC(CCc2ccc3c(n2)NCCC3)C1)C(=O)O)[C@H]1CCN(c2ccccn2)C1` [Compound 138], the IC50 was in the range of 250 to 1000 nM. Turning to `COC(=O)N1CCC[C@@H](C(=O)N[C@@H](CCN2CC[C@@H](CCc3ccc4c(n3)NCCC4)C2)C(=O)O)C1` [Compound 80], the IC50 is below 50 nM. As for `O=C(N[C@@H](CCN1CC[C@@H](CCc2ccc3c(n2)NCCC3)C1)C(=O)O)c1ccncc1` [Compound 18a, (S)-2-(isonicotinamido)-4-((R)-3-(2-(5,6,7,8-tetrahydro-1,8-naphthyridin-2-yl)ethyl)pyrrolidin-1-yl)butanoic acid], the IC50 was below 50 nM. Consider `O=C(NC(CCN1CC[C@@H](CCc2ccc3c(n2)NCCC3)C1)C(=O)O)C1CCN(C2CC2)CC1` (stereo partly shown) [23a and 23c], for which the IC50 lay in the range of 50 to 250 nM. As for `Cc1cc(C)n(-c2cccc(C(=O)N[C@@H](CCN3CCC[C@@](F)(CCc4ccc5c(n4)NCCC5)C3)C(=O)O)c2)n1` [Compound 53], the IC50 is below 50 nM.

Take `O=C(N[C@@H](CCN1CC(OCCc2ccc3c(n2)NCCC3)C1)C(=O)O)[C@@H]1CCN(c2ccccn2)C1` [Compound 131]: the IC50 fell in the range of 50 to 250 nM. Regarding `O=C(O)[C@H](CCN1CC(CCc2ccc3c(n2)NCCC3)C1)NC(=O)[C@@H]1CCNC1Cc1ccccc1` (stereo partly shown) [Compound 143], the IC50 was above 1000 nM. Take `O=C(N[C@@H](CCN1CC[C@H](CCc2ccc3c(n2)NCCC3)C1)C(=O)O)c1c(Cl)cccc1Cl` [Compound 146]: the concentration for half-maximal inhibition (IC50) is below 50 nM.

As to `Cn1ncc2cc(C(=O)N[C@@H](CCN3CC[C@@H](CCc4ccc5c(n4)NCCC5)C3)C(=O)O)ccc21` [Compound 25a, (S)-2-(1-methyl-1H-indazole-5-carboxamido)-4-((R)-3-(2-(5,6,7,8-tetrahydro-1,8-naphthyridin-2-yl)ethyl)pyrrolidin-1-yl)butanoic acid], the concentration for half-maximal inhibition (IC50) was in the range of 50 to 250 nM. `O=C(Cc1ccccc1Cl)N[C@@H](CCN1CC[C@@H](CCc2ccc3c(n2)NCCC3)C1)C(=O)O` [Compound 75]: the half-inhibitory concentration (IC50) was below 50 nM.

As to `O=C(N[C@@H](CCN1CC[C@@H](OCCc2ccc3c(n2)NCCC3)C1)C(=O)O)C1CCOCC1` [Compound 117], the IC50 lay within 250 to 1000 nM. With `CCC(CC)C(=O)N[C@@H](CCN1CCC[C@](F)(CCc2ccc3c(n2)NCCC3)C1)C(=O)O` [Compound 108] the figure was 250 to 1000 nM; with `O=C(N[C@@H](CCN1CC[C@@H](OCCc2ccc3c(n2)NCCC3)C1)C(=O)O)[C@@H]1CCN(c2ccccn2)C1` [Compound 125], 250 to 1000 nM; with `Cc1cc(C)n(-c2cccc(C(=O)N[C@H](CCN3CC[C@@H](CCc4ccc5c(n4)NCCC5)C3)C(=O)O)c2)n1` [Compound 13c, (R)-2-(3-(3,5-dimethyl-1H-pyrazol-1-yl)benzamido)-4-((R)-3-(2-(5,6,7,8-tetrahydro-1,8-naphthyridin-2-yl)ethyl)pyrrolidin-1-yl)butanoic acid], below 50 nM. With `O=C(O)[C@H](CCN1CC[C@@H](CCc2ccc3c(n2)NCCC3)C1)NC(=O)[C@@H]1COCCN1Cc1ccccc1` [Compound 89] the figure was below 50 nM. `O=C(N[C@H](CCN1CC[C@@H](CCc2ccc3c(n2)NCCC3)C1)C(=O)O)c1cccc(-c2ccccc2)c1` [Compound 83]: the concentration for half-maximal inhibition (IC50) is below 50 nM. In the case of `Cn1cc(C(=O)N[C@@H](CCN2CC[C@@H](CCc3ccc4c(n3)NCCC4)C2)C(=O)O)cn1` [Compound 69], the half-inhibitory concentration (IC50) was 50 to 250 nM.

`O=C(N[C@@H](CCN1CC[C@@H](CCc2ccc3c(n2)NCCC3)C1)C(=O)O)c1cc(F)cc(C(F)(F)F)c1` [Compound 76]: the 50% inhibitory concentration (IC50) is below 50 nM. Regarding `O=C(O)[C@H](CCN1CC[C@@H](CCc2ccc3c(n2)NCCC3)C1)NC(=O)[C@@H]1CCCCN1Cc1ccccc1` [Compound 93], the IC50 lay within 50 to 250 nM. Turning to `O=C(O)[C@H](CCN1CC[C@@H](CCc2ccc3c(n2)NCCC3)C1)NC(=O)[C@@H]1CCCN1Cc1ncccn1` [Compound 90], the 50% inhibitory concentration (IC50) was below 50 nM.

Consider `O=C(N[C@@H](CCN1CC[C@@H](CCc2ccc3c(n2)NCCC3)C1)C(=O)O)c1ccc(N2CCOCC2)cc1` [Compound 16a, (S)-2-(4-morpholinobenzamido)-4-((R)-3-(2-(5,6,7,8-tetrahydro-1,8-naphthyridin-2-yl)ethyl)pyrrolidin-1-yl)butanoic acid], for which the IC50 was above 1000 nM. Then `O=C(N[C@H](CCN1CC[C@H](CCc2ccc3c(n2)NCCC3)C1)C(=O)O)c1c(Cl)cccc1Cl` [Compound 147], with above 1000 nM.

Turning to `CC(C)(Cc1ccccc1)C(=O)N[C@@H](CCN1CC[C@@H](OCCc2ccc3c(n2)NCCC3)C1)C(=O)O` [Compound 119], the half-maximal inhibitory concentration (IC50) was in the range of 250 to 1000 nM. On to `O=C(N[C@@H](CCN1CC[C@@H](CCc2ccc3c(n2)NCCC3)C1)C(=O)O)c1cccc(F)c1Cl` [Compound 5a, (S)-2-(2-chloro-3-fluorobenzamido)-4-((R)-3-(2-(5,6,7,8-tetrahydro-1,8-naphthyridin-2-yl)ethyl)pyrrolidin-1-yl)butanoic acid], for which the IC50 is below 50 nM. As to `O=C(N[C@@H](CCN1CC(OCCc2ccc3c(n2)NCCC3)C1)C(=O)O)c1c(Cl)cccc1Cl` [Compound 115], the IC50 is below 50 nM.

Consider `O=C(O)[C@H](CCN1CC(OCCc2ccc3c(n2)NCCC3)C1)NC(=O)[C@@H]1CCCN1Cc1ccccc1` [Compound 123], for which the IC50 was below 50 nM. As for `O=C(O)[C@H](CCN1CC[C@@H](CCc2ccc3c(n2)NCCC3)C1)NC(=O)[C@@H]1CCCN1CC1CC1` [Compound 91], the IC50 fell in the range of 50 to 250 nM.

As for `CC(C)n1ncc2c(C(=O)N[C@@H](CCN3CC[C@@H](CCc4ccc5c(n4)NCCC5)C3)C(=O)O)cccc21` [Compound 60], the IC50 was below 50 nM. `O=C(O)[C@H](CCN1CC[C@@H](CCc2ccc3c(n2)NCCC3)C1)NC(=O)[C@@H]1CCCN1Cc1cccnc1` [Compound 99]: the half-maximal inhibitory concentration (IC50) is below 50 nM. With `CC(C)(O)CN1CCC[C@H]1C(=O)N[C@@H](CCN1CC[C@@H](CCc2ccc3c(n2)NCCC3)C1)C(=O)O` [Compound 77] the figure was below 50 nM; with `Cn1nccc1-c1cccc(C(=O)N[C@H](CCN2CC[C@@H](CCc3ccc4c(n3)NCCC4)C2)C(=O)O)c1` [Compound 86], below 50 nM. With `O=C(N[C@@H](CCN1CC[C@@H](CCc2ccc3c(n2)NCCC3)C1)C(=O)O)c1cccc(N2CCOCC2)c1` [Compound 15a, (S)-2-(3-morpholinobenzamido)-4-((R)-3-(2-(5,6,7,8-tetrahydro-1,8-naphthyridin-2-yl)ethyl)pyrrolidin-1-yl)butanoic acid] the figure was below 50 nM.

As to `O=C(N[C@@H](CCN1CC[C@@H](CCc2ccc3c(n2)NCCC3)C1)C(=O)O)c1cccc2cn[nH]c12` [Compound 26a, (S)-2-(1H-indazole-7-carboxamido)-4-((R)-3-(2-(5,6,7,8-tetrahydro-1,8-naphthyridin-2-yl)ethyl)pyrrolidin-1-yl)butanoic acid], the IC50 is below 50 nM. Turning to `O=C(N[C@@H](CCN1CC(OCCc2ccc3c(n2)NCCC3)C1)C(=O)O)C1CCOCC1` [Compound 124], the 50% inhibitory concentration (IC50) lay in the range of 50 to 250 nM.
